In US4513008A, “Virucidal compositions and therapy” (The Vinoxen Company, Inc., priority 1982, dated 1985):

Assays:
virus = conditions: cited from earlier work
PR4 bacteriophage = PR4 bacteriophage in vitro; cited from earlier work
[1] = test system: herpes simplex virus type 2 (HSV-2); assay: In vitro HSV-2 bioassay: virucidal plaque assay (HEP-2 cells); assay type: cell-based, HSV-2 strain 333; conditions: for plaque count: TNTC = too numerous to count
Procedure: Evidence of the efficacy of the virucides of the invention in vitro has been obtained from bioassay using HSV-2, using a standard assay procedure. Serial dilutions of the compounds were tested for their ability to prevent plaque formation by a stock virus suspension. Reduction of plaque titer by test compounds as compared to mock treated controls was indicative of virucidal activity. […] These represent the upper limit for the drug concentration, since dilutions were not carried beyond 1:6400 and in some cases 1:12800.
Cell Culture. Cell cultures used for the propagation and titration of HSV-2 were the human diploid lung embryonic line MRC-5 and the human malignant epitheloid cell line HEP-2 respectively. Stock monolayer cultures of both cell lines were propagated in Dulbecco's Modified Eagle's medium (DME) supplemented with 10% (V/V) calf serum. Spinner cultures for mass production of HEP-2 cells were grown in Joklik's medium supplemented with 10% (V/V) calf serum and 1% (W/V) pluronic acid. Monolayer cultures of HEP-2 cells for plaque or virucidal assay were seeded into 60 mm dishes in DME supplemented with 10% calf serum and antibiotics. Stock cultures were maintained in antibiotic free medium.
Herpes simplex virus, type 2 (HSV-2) strain 333 was obtained from Dr. John Hughes of the Dept. of Medical Microbiology, College of Medicine, The Ohio State University. Stocks of HSV-2 were prepared in the human diploid embryonic lung cell line, MRC-5. Confluent MRC-5 monolayer cultures in T-75 plastic flasks were washed one time with Hank's and Balanced Salt solution (HBSS) and infected with 0.5 ml of HSV-2, strain 333 stock. Virus was adsorbed for 1 hour at 37° C. Then the culture was refed with 15 ml of DME supplemented with 1% (V/V) calf serum. Virus was harvested 48 hours later when cytopathology was complete. Cultures were frozen and thawed rapidly three times to release cell associated virus, clarified by centrifugation at 10,000×g for 15 minutes at 4° C., aliquoted into 5 ml lots and frozen at -70° C. One lot was taken for virus titration.
HSV-2 was titrated by plaque assay in HEP-2 cells under a semi-solid methyl cellulose overlay. Tenfold serial dilutions of virus were prepared in HBSS and 0.3 ml aliquots of each dilution inoculated onto triplicate HEP-2 cell monolayers in 60 mm plastic petri dishes. Adsorption of virus was for 1 hour at 37° C. Plates were then overlayed with 5 ml of a 1:1 mixture of 2×DME supplemented with 2% (V/V) calf serum and 3% (W/V) methyl cellulose to give a final 1×DME supplemented with 1% calf serum and 1.5% methylcellulose. Infected plates were incubated at 37° C. in a humidified 10% CO2 atmosphere for 48 hours. Virus plaques were visualized by staining with crystal violet and counted under a dissecting microscope. Virus titers were calculated from the plaque numbers by averaging the plaque count and multiplying by 3.3 (0.3 ml plates).
The following procedure was employed to assay virucidal activity in various test samples. Compounds were received as a solution in DMSO and were serially diluted in HBSS as described for each experiment. For the test, 1 ml of each dilution was mixed with 1 ml of a stock virus suspension diluted to approximately 9×10^3 plaque forming units (P.F.U.)/ml. This test mixture was incubated at 25° C. for 30 minutes, then inoculated onto a cell culture (HEP-2) for plaque assay as described previously. Mock treated (virus plus HBSS) controls were included with each test. Any reduction of plaque titer by test compounds as compared to the mock treated control was indicative of virucidal activity.
Samples from RP-HPLC fractionation of the CLOH, produced according to Example 2, as well as purified samples of palmitic, myristic and oleic acids and Vitamin D2, were tested for HSV-2 bioactivity. […] Pure oleic acid was not active in this assay, nor were palmitic and myristic acids and Vitamin D2. […]

bacteriophage = conditions: cited from earlier work
HSV-2 = assay: In vivo mouse bioassay: intravaginal HSV-2 infection, topical treatment; parameters: species or system HSV-2 strain 333 in female Swiss Webster mice; key to Max. Lesion Score: 0: no clinical signs of vaginal infection; ±: slight perivaginal redness; perivaginal redness and swelling of 1-2 mm; perivaginal redness and swelling of 2-3 mm; perivaginal and perianal redness and swelling of 3-4 mm; perivaginal and perianal redness and swelling of 4 mm or more, with exudate; conditions: for # Infected, Day 14 / # of Deaths, Day 14: 10 animals/group
herpes virus type 2 = assay: Guinea pig bioassay: intravaginal HSV-2 infection, topical treatment; assay type: in vivo; parameters: key to MVL Score Day 5 / MVL Score Day 6 / MVL Score Day 7 / MVL Score Day: lesion severity scored on 0 to 4 scale
Procedure: In both studies, DHA was compared with ACV in a controlled study for effectiveness in reducing the occurrence and the severity of lesions resulting from infection by HSV-2 and in reducing mortality resulting from the virus infection.
Using substantially the procedures of Pancic et al., loc. cit., the topical activity of DHA, a representative and preferred virucide for use in the present method, was evaluated in mice and in guinea pigs. Both evaluations included comparative testing against ACV and the mouse tests included a comparison of two different vehicles.
A blind comparative test was carried out on guinea pigs using coded substances labeled A through D. The testers were told only that one of the four substances was ACV, that the other three coded samples were the same material, in concentrations of 0.1, 1.0 and 10 mg/ml, and that all four samples were formulated in a polyethylene glycol 1000 (PEG-1000) vehicle. A separate sample of the PEG-1000 was also submitted to serve as a placebo for treating virus control animals. The materials and experimental protocol is shown below.
Animals. Female Hartley strain albino guinea pigs weighing about 450-500 g were used. The animals were quarantined 24 hr prior to use in this study, and maintained 5 to a 32"×32"×9" stainless steel cage on Wayne guinea pig diet and water ad libitum.
Virus. Strain E194 of herpes virus type 2 was used. […] The virus was held at -90° C. until used.
(§1) Drugs. The substances tested consisted of four bottles labelled "A", "B", "C", and "D" with no identifying key. The samples were: A, 0.1 mg/ml DHA (0.003 mmol/ml); B, 5% w/w ACV (0.22 mmol/ml); C, 1 mg/ml DHA (0.03 mmol/ml); and D, 10 mg/ml DHA ([…]). […] All were treated as light-sensitive compounds.
Experimental Protocol. The guinea pigs were infected by applying a virus-soaked swab intravaginally, with agitation, for 20 seconds. […] Treatment began 20 hr later, with the compound or placebo applied topically intravaginally, perivaginally, and perianally using cotton swabs soaked in the respective substance. Treatment continued three times daily (8 a.m., noon, 4 p.m.) for 7 days. Ten infected animals were used for each coded substance, with twenty used for virus controls. Five sham-infected animals were concomitantly treated with each coded substance to serve as toxicity controls. Two guinea pigs were held separately to serve as normal untreated controls.
(§2) On days 5 through 8 post-virus inoculation, the genital area was carefully examined and signs of irritation in the toxicity controls and lesion severity in injected animals was scored on a 0 to 4 scale using the same scale as in the mouse bioassay. The results were scored as average daily lesion (ADL) scores for each group, and as mean vaginal lesion (MVL) scores, calculated as the mean of the ADL scores for days 5-8. The maximum mean score for the toxicity control animals was also determined.
On day 6 prior to the 8 a.m. treatment, intravaginal and perivaginal areas of each infected guinea pig were uniformly swabbed with sterile cotton swabs. The swab for each animal was placed in 1.0 ml of sterile Eagles minimum essential medium and immediately frozen at -90° C.; several days later all were thawed and each swab-containing sample vortexed for 15 seconds and then the sample was diluted through a series of 10-fold dilutions in sterile medium. Each dilution was assayed for virus in triplicate by adding 0.1 ml to an established monolayer of MA-104 cells in 96-well disposable plastic microplates. The plates were sealed, incubated at 72 hr at 37° C., and virus-induced cytopathic effect noted microscopically.
Data Analysis. Increases in survivors were analyzed using chi square analysis with Yate's correction. Mean survival times (MST) of animals dying on or before […] were determined for each group, and evaluated using the t test.

[2] = Guinea pig toxicity controls (sham-infected, topical treatment); assay type: in vivo, guinea pigs; conditions: B: 5% w/w ACV in PEG-1000
Procedure: as §1
Experimental Protocol. The guinea pigs were infected by applying a virus-soaked swab intravaginally, with agitation, for 20 seconds. Toxicity control animals were similar pretreated using swabs soaked in sterile Puck's balanced salt solution. Treatment began 20 hr later, with the compound or placebo applied topically intravaginally, perivaginally, and perianally using cotton swabs soaked in the respective substance. Treatment continued three times daily (8 a.m., noon, 4 p.m.) for 7 days. Ten infected animals were used for each coded substance, with twenty used for virus controls. Five sham-infected animals were concomitantly treated with each coded substance to serve as toxicity controls. Two guinea pigs were held separately to serve as normal untreated controls.
as §2, with “Each animal was observed daily for survival for a total of 28 days. On” for “On”

[3] = test system: gram-positive and gram-negative microorganisms; conditions: cited from earlier work

CCCCCC=CCC=CCC=CCCCCCO [gamma-linolenyl alcohol, 6,9,12-octadecatrien-1-ol]
antiviral activity in vitro, in words (virus): most active

CCCCCC/C=C\CCCCCCCC(=O)O [palmitoleic acid]
inhibition of viral replication, in words (PR4 bacteriophage): most effective

CCCCCCCC/C=C\CCCCCCCC(=O)O [Oleic acid, reference compound]
plaque count ([1]; Table 1, dilution 1:10): 36
titer ([1]; Table 1, dilution 1:10, controls 2.6 × 10^4 (a), 1.3 × 10^4 (b)): 1.2 × 10^2
plaque count ([1]; Table 1, dilution 1:100): TNTC
plaque count ([1]; Table 1, dilution 1:200): TNTC
plaque count ([1]; Table 1, dilution 1:400): TNTC
plaque count ([1]; Table 1, dilution 1:800): TNTC
plaque count ([1]; Table 1, dilution 1:1600): TNTC
plaque count ([1]; Table 1, dilution 1:3200): TNTC
plaque count ([1]; Table 1, dilution 1:6400): TNTC
virucidal activity against HSV-2 in words ([1]; in vitro bioassay): not active
inactivation of virus (virucidal activity), in words (bacteriophage): most effective fatty acid tested
inhibition of viral replication, in words (PR4 bacteriophage): most effective

Nc1nc2c(ncn2COCCO)c(=O)[nH]1 [Acyclovir, 9-(2-hydroxyethoxymethyl)guanine, reference compound]
Max. Lesion Score (HSV-2; ACV 5% wt/vol in DMSO): ±
# Infected, Day 14 (HSV-2; ACV 5% wt/vol in DMSO): 3
# of Deaths, Day 14 (HSV-2; ACV 5% wt/vol in DMSO): 0
Max. Lesion Score (HSV-2; ACV 5% wt/vol in PEG): ±
# Infected, Day 14 (HSV-2; ACV 5% wt/vol in PEG): 4
# of Deaths, Day 14 (HSV-2; ACV 5% wt/vol in PEG): 0
% Mortality (HSV-2; DMSO & Acyclovir (5%)): 0%
Day of Maximum % Morbidity (HSV-2; DMSO & Acyclovir (5%)): 7 days
Maximum % Morbidity (HSV-2; DMSO & Acyclovir (5%)): 30%
Mean Day of Death (HSV-2; DMSO & Acyclovir (5%)): > 14 days
% Mortality (HSV-2; Ointment & Acyclovir (5%)): 0%
Day of Maximum % Morbidity (HSV-2; Ointment & Acyclovir (5%)): 7 days
Maximum % Morbidity (HSV-2; Ointment & Acyclovir (5%)): 40%
Mean Day of Death (HSV-2; Ointment & Acyclovir (5%)): > 14 days
survival rate (HSV-2; both carrier vehicles, observed 14 day period): 100%
efficacy in mice in words (HSV-2; topical, HSV-2 infected mice): effective in minimizing the clinical signs of infection in either carrier vehicle
MVL Score Day 5 (herpes virus type 2; B: 5% w/w ACV in PEG-1000): 1.8
MVL Score Day 7 (herpes virus type 2; B: 5% w/w ACV in PEG-1000): 3.4
MVL Scores Days 5-8 (herpes virus type 2; B: 5% w/w ACV in PEG-1000, 0 to 4 scale): 2.8
Infected, Treated Surv/Total (herpes virus type 2; B: 5% w/w ACV in PEG-1000, 28 days): 5/10
MVL Score Day 6 (herpes virus type 2; B: 5% w/w ACV in PEG-1000, P < 0.05): 2.3
MVL Score Day (herpes virus type 2; B: 5% w/w ACV in PEG-1000, last day): 3.3
reduction in lesion scores, in words (herpes virus type 2; guinea pigs, topical): neither ACV nor the lowest dosage of DHA were able to achieve a statistically significant reduction in lesion scores
Toxicity Controls Surv/Total [2]: 5/5
Toxicity Controls Max. Irrit. Score ([2]; 0 to 4 scale): 0.0

CCCCC/C=C\C/C=C\C/C=C\C/C=C\CCCC(=O)O [Arachidonic acid]
inhibition of viral replication, in words (PR4 bacteriophage): moderately effective, but less effective than linolenic acid
inhibition of growth of microorganisms, in words [3]: not inhibitory at the concentrations tested
